Test results published in the supplement of paper PMC10307832.

Assays:
Test in all cases: relative viability (nuclei count vs DMSO), 5 days (fraction); higher = more cells survive
Darinaparsin = compound: C[As](C)SC[C@H](NC(=O)CC[C@H](N)C(=O)O)C(=O)NCC(=O)O [Darinaparsin]
Summary of the method: (§1)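 On vehicle-anchored 1536-well plates, lung cancer cell lines held overnight at 37 °C were pinned with five library-drug doses (not always all listed) spaced by √10. With no medium change over 5 days, they were then fixed, permeabilised and Hoechst-stained in one step and imaged at 4×. MetaXpress counted nuclei, and viability is the median across plates of treated-well over vehicle-well nuclei. Acceptance needed control CV below 25% and at least one doubling.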

QS11 = compound: C1CC2=C(C1)C=C(C=C2)OC3=NC(=C4C(=N3)N(C=N4)CC5=CC=C(C=C5)C6=CC=CC=C6)N[C@@H](CC7=CC=CC=C7)CO [QS11]
Summary of the method: as §1

AZ628 = compound: CC1=C(C=C(C=C1)NC(=O)C2=CC(=CC=C2)C(C)(C)C#N)NC3=CC4=C(C=C3)N=CN(C4=O)C [AZ628]
Summary of the method: as §1

AZ628 + Pemetrexed = compound: CC1=C(C=C(C=C1)NC(=O)C2=CC(=CC=C2)C(C)(C)C#N)NC3=CC4=C(C=C3)N=CN(C4=O)C [AZ628] + Nc1nc2[nH]cc(CCc3ccc(C(=O)N[C@@H](CCC(=O)O)C(=O)O)cc3)c2c(=O)[nH]1 [Pemetrexed] (partner 0.2 µM)
Summary of the method: (§2)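 Each reported value is a median over duplicate plates. It expresses relative viability: treated-well nuclei count divided by vehicle-well nuclei count. Lung cancer cell lines in 1536-well plates were dosed by pin tool a day after seeding, alone with one drug or with a fixed anchor-drug dose plus five library-drug doses (not always all listed) in √10 steps, and nuclei were counted after 5 days.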

QS11 + Trametinib = compound: C1CC2=C(C1)C=C(C=C2)OC3=NC(=C4C(=N3)N(C=N4)CC5=CC=C(C=C5)C6=CC=CC=C6)N[C@@H](CC7=CC=CC=C7)CO [QS11] + CC(=O)Nc1cccc(-n2c(=O)n(C3CC3)c(=O)c3c(Nc4ccc(I)cc4F)n(C)c(=O)c(C)c32)c1 [Trametinib] (partner 0.02 µM)
Summary of the method: as §2

With LCLC-97TM1 the relative viability (Darinaparsin; 0.08 µM) was 1.13, the relative viability (Darinaparsin; 0.8 µM) was 0.834 and the relative viability (Darinaparsin; 2.53 µM) was 1. It also gave a relative viability (Darinaparsin; 8 µM) of 1.02, a relative viability (QS11; 0.253 µM) of 1.15 and a relative viability (QS11; 2.53 µM) of 0.998. The relative viability (QS11; 8 µM) was 0.84, the relative viability (AZ628; 0.08 µM) was 1.17 and the relative viability (AZ628; 0.253 µM) was 0.849. For the same cell line, the relative viability (AZ628; 0.8 µM) was 0.765, the relative viability (AZ628; 2.53 µM) was 0.761 and the relative viability (AZ628; 8 µM) was 0.199. It also gave a relative viability (AZ628 + Pemetrexed; first compound 0.08 µM) of 0.246, a relative viability (AZ628 + Pemetrexed; first compound 0.253 µM) of 0.255 and a relative viability (AZ628 + Pemetrexed; first compound 0.8 µM) of 0.238. The relative viability (AZ628 + Pemetrexed; first compound 2.53 µM) was 0.229, the relative viability (AZ628 + Pemetrexed; first compound 8 µM) was 0.121 and the relative viability (QS11 + Trametinib; first compound 0.253 µM) was 0.213. The relative viability (QS11 + Trametinib; first compound 2.53 µM) was 0.223 and the relative viability (QS11 + Trametinib; first compound 8 µM) was 0.277.
